Laboratory results from patent US6395499B1, “Methods of identifying modulators of a DP prostaglandin receptor” (Merck Frosst Canada & Co., priority 1995, dated 2002).

Columns and labels:
DP receptor = biological target: T1, DP receptor (Homo sapiens, UniProt Q13258); test: Intracellular calcium [Ca2+]i assay in DP-HEK293 (EBNA) stable cell line; type: cell-based; set-up: [Ca2+]i upon ionophore challenge at end of experiment (viability check): dose or concentration left out as unconfirmed; details: for calcium mobilization [Ca2+]i: DP-expressing HEK293 (EBNA) cells
T1 construct: The full length coding cDNA was constructed as follows; expressed in transfected cells
T1 sequence (Q13258 1-359): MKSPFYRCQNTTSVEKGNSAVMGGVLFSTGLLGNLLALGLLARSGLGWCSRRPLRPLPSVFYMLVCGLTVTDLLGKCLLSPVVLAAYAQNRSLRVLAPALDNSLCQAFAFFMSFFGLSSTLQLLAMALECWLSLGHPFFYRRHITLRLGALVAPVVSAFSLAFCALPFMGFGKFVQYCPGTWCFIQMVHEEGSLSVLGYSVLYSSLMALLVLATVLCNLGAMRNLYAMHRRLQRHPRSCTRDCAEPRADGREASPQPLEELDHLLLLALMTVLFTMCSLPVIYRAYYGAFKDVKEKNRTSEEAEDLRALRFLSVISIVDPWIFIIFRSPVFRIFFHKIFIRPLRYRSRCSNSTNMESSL
Experimental: FIG. 4—Increases in intracellular calcium [Ca^2+]i in HEK293 (EBNA) cells stably expressing the DP receptor is shown. DP-HEK293 (EBNA) cells were harvested and prepared as described in Example 8. […] At the end of each experiment cells were challenged with 1 μM ionomycin to release [Ca^2+]i followed by quenching of the [Ca^2+]i release with 1 mM EDTA.
(§1) Intracellular calcium [Ca^2+]i measurements were performed with both the DP-HEK293 (EBNA) stable cell line and control HEK293 (EBNA) cells. The cells were harvested with enzyme-free cell dissociation buffer, recovered by centrifugation at 300×g for 5 min at 22° C. and resuspended at 2×10^6 cells/ml in DMEM growth medium without G418 or hygromycin B. The cells were incubated at 37° C., 6% CO2 for 45 min with 2 μM fura-2 AM. Unincorporated fura-2 AM was removed by three washes in HBSS (1.3 mM CaCl2, 5 mM KCl, 0.3 mM KH2PO4, 0.9 mM MgCl2, 138 mM NaCl, 4 mM NaHCO3, 0.3 mM Na2HPO4, 5.6 mM D-glucose) by centrifugation at 300×g, for 5 min at 22° C. The cells were then resuspended at a final concentration of 10^6 cells/ml in HBSS. [Ca^2+]i was measured following agonist challenge of 2*10^6 fura-2 AM loaded cells using a Perkin-Elmer LS-5 spectrophotometer essentially as described (Chan et al., 1994, Journal of Pharmacology and Experimental Therapeutics 269(3): 891-896).

[1] = biological target: T2, human prostaglandin D2 (DP) receptor (Homo sapiens, UniProt Q13258); test: [3H]PGD2 specific binding assay, membranes of pcDNA3-hDP transfected COS-M6 cells; details: 0.87 nM [3H]PGD2, 60 min at 30° C., pH 7.0, read-out: Ki, competition for [3H]PGD2 specific binding
T2 construct: The full length coding cDNA was constructed as follows; expressed in transfected cells
T2 sequence (Q13258 1-359): T1 sequence (Q13258 1-359)
Experimental: FIG. 3—Competition for [^3H]PGD2 specific binding to pcDNA3-hDP transfected COS-M6 membranes. [^3H]PGD2 binding assays were performed as described in Example 6. The percentage maximum [^3H]PGD2 specific binding at each competing ligand concentration was determined for PGD2 (▪), the DP receptor agonist BW245C (●), the DP antagonist BW868C (♦), PGE2 (▴), PGF2a (▾), iloprost (□) and the TP-receptor agonist U46619 (∘), over a concentration range up to 100 μM.
The recently cloned human prostaglandin D2 (DP) receptor was subcloned into the pcDNA3 plasmid (Invitrogen) and transfected into COS-M6 cells by the cationic liposome-mediated transfer of DNA using LiofectAMINE reagent (GIBCO/BRL). The cells were maintained in culture for 72 h, then harvested and membranes prepared by differential centrifugation (1000×g for 10 min, then 100,000×g for 30 min) following lysis of the cells by nitrogen cavitation. [^3H]PGD2 specific binding assays were performed in 10 mM BES adjusted to pH 7.0 with KOH and containing 1.0 mM EDTA, 10 mM MnCl2, 0.87 nM [^3H]PGD2 and […] of protein from the 100,000×g membrane fraction. Incubations were conducted for 60 min at 30° C. prior to separation of the bound and free radioligand by rapid filtration through Whatman GF/B filters presoaked at 4° C. in washing buffer (10 mM BES/KOH (pH 7.0) containing 0.01% (w/v)bovine serum albumin). The filters were washed with approximately 16 ml of washing buffer and the residual [^3H]PGD2 bound to the filter was quantified by liquid scintillation counting. Specific binding was defined as the difference between total binding and non-specific binding, determined in the presence of 1 mM PGD2.
The cloned human DP receptor was transfected into COS-M6 cells and [^3H]PGD2 binding assays were performed with membranes prepared from the transfected cells. […] The rank order of affinity for prostaglandins and related synthetic analogs at the human DP receptor was therefore: BW245C>PGD2>BW868C>PGE2>PGF2a=iloprost>U46619. This rank order of potency has been predicted for the DP receptor from previous pharmacological studies.

[2] = biological target: T2, human prostaglandin D2 (DP) receptor; test: cAMP assay in HEK293 (EBNA) cells stably expressing the DP receptor; type: cell-based; details: for EC50: 15 min at 37° C., 100 μM RO-20-1724, read-out: EC50, increase in intracellular cAMP production; for cAMP production: concentrations up to 1 μM
Experimental: FIG. 5—Increases in intracellular cAMP production in HEK293 (EBNA) cells stably expressing the DP receptor is shown. cAMP assays were performed as described in Example 7. The pmoles of cAMP produced per 1.5×10^5 cells at each ligand concentration was determined for PGD2 (n), the DP receptor agonist BW245C (●), the DP antagonist BW868C (♦), PGE2 (▴), PGE1 ( ? ), PGF2α (▾), iloprost (□) and the TP-receptor agonist U46619 (∘), over a concentration range up to 1 μM.
The recently cloned human prostaglandin D2 (DP) receptor was subcloned into the pCEP4 plasmid (Invitrogen) and transfected into HEK293 (EBNA) cells by the cationic liposome-mediated transfer of DNA using LipofectAMINE™ (Gibco/BRL) reagent. Cells were maintained in culture for 48 h post transfection and then trypsinized, diluted and replated in the presence 200 μg/ml hygromycin B (Calbiochem) to select for transfected cells. Cells were maintained under selection for 3 weeks to ensure a homogeneous population of cells expressing the DP receptor.
(§2) Increases in intracellular cAMP production following agonist challenge was performed in HEK293 (EBNA) cells expressing the DP receptor and control HEK293 (EBNA) cells. Cells were harvested at approximately 80% confluence by incubation in enzyme-free cell dissociation buffer (Gibco/BRL), washed once with HEPES-buffered Krebs-Ringer solution {1.25 mM MgSO4, 1.5 mM CaCl2, 5 mM KCl, 124 mM NaCl, 8 mM glucose, 1.25 mM KH2PO4, and 25 mM HEPES/KOH (pH 7.4)} and resuspended in the same buffer. The cAMP assay was performed in a final volume of 0.2 ml of HEPES-buffer Krebs-Ringer solution and 100 μM of the phosphodiesterase type IV inhibitor RO-20-1724 (Biomol), to prevent hydrolysis of cAMP. RO-20-1724 and the compounds under evaluation were added to the incubation mixture in dimethyl sulfoxide or ethanol to a final vehicle concentration 0.35% (v/v) which was kept constant in all samples. The reaction was initiated by the addition of 1.5×10^5 cells per incubation. Samples were incubated at 37° C. for 15 min and the reaction was then terminated by immersing the samples in boiling water for 3 minutes. Cell viability was always ≧96% as determined by trypan blue exclusion. Measurement of cAMP was performed by radioimmunoassay using [^125I]cAMP (Amersham International).

[3] = test system: control HEK293 (EBNA) cells; test: Intracellular calcium [Ca2+]i assay in control HEK293 (EBNA) cells; type: cell-based; details: 1000 nM
Experimental: as §1

[4] = test system: control HEK293 (EBNA) cells; test: cAMP assay in control HEK293 (EBNA) cells; type: cell-based; details: 1 μM; for cAMP production in control cells: control HEK293 (EBNA) cells
Experimental: as §2

SMILES: C[C@H](CCC(=O)O)C[C@H](C)C[C@H](C)C(=O)/C=C(\O)[C@H](C)C[C@H](C)C/C=C/[C@@H](C)[C@@H](O)[C@@H](C)[C@@H](O)C[C@@H]1CC[C@@](C)([C@H]2CC[C@@](C)([C@@H](C)O)O2)O1 [ionomycin]
- [Ca2+]i upon ionophore challenge at end of experiment (viability check) (DP receptor): large increase in [Ca^2+]i

SMILES: CCCCC[C@H](O)/C=C/[C@@H]1[C@@H](C/C=C\CCCC(=O)O)[C@@H](O)C[C@H]1O [PGF2a]
- Ki [1]: 512 nM

SMILES: CCCCC[C@H](O)/C=C/[C@H]1C(=O)C[C@H](O)[C@@H]1C/C=C\CCCC(=O)O [PGD2, Prostaglandin D2]
- calcium mobilization [Ca2+]i (DP receptor; 10 to 1000 nM): increased calcium mobilization
- calcium mobilization [Ca2+]i (DP receptor; concentrations below 10 nM, versus vehicle): failed to induce a response
- fold less potent than BW245C (cAMP EC50) [2]: 10 fold
- EC50 [2]: 6.4 nM
- cAMP production [2]: > 140 pmol cAMP/1.5×10^5 cells
- change in [Ca2+]i in control cells [3]: did not provoke any change
- Ki [1]: 1.1 nM

SMILES: O=C(O)CCCCCCC1C(=O)N(Cc2ccccc2)C(=O)N1NCC(O)C1CCCCC1 (stereo not drawn) [BW868C]
- cAMP production [2]: 20 pmol cAMP/1.5×10^5 cells
- Ki [1]: 1.7 nM

SMILES: CCCCC[C@H](O)/C=C/[C@H]1[C@H](O)CC(=O)[C@@H]1CCCCCCC(=O)O [PGE1]
- fold less cAMP in control cells than in similarly challenged DP-expressing cells [4]: 14 fold
- cAMP production in control cells [4]: 6 pmoles/1.5×10^5 cells

SMILES: CCCCC[C@H](O)/C=C/[C@@H]1[C@@H](C/C=C\CCCC(=O)O)[C@H]2CO[C@@H]1C2 [U46619]
- Ki [1]: ~1850 nM

SMILES: CCCCC[C@H](O)/C=C/[C@H]1[C@H](O)CC(=O)[C@@H]1C/C=C\CCCC(=O)O [PGE2]
- fold less cAMP in control cells than in similarly challenged DP-expressing cells [4]: 14 fold
- cAMP production in control cells [4]: 6 pmoles/1.5×10^5 cells
- Ki [1]: 101 nM

SMILES: CC#CCC(C)[C@H](O)/C=C/[C@@H]1[C@H]2C/C(=C/CCCC(=O)O)C[C@H]2C[C@H]1O (stereo partly drawn) [iloprost]
- EC50 [2]: > 500 nM
- Ki [1]: 630 nM

SMILES: O=C(O)CCCCCCC1C(=O)NC(=O)N1CCC(O)C1CCCCC1 (stereo not drawn) [BW245C]
- EC50 [2]: 0.6 nM
- Ki [1]: 0.9 nM
